In patent publication EP0104826A2, “Immunomodulator and method of use for immunomodulation” (FUJISAWA PHARMACEUTICAL CO., LTD., priority 1982, dated 1984):

How the values were obtained:
mouse spleen cells = experiment: Mitogen (concanavalin A)-induced mouse spleen cell proliferation, 3H-thymidine incorporation; suppression by immunosuppressive factor and restoration; format: cell-based
Experimental: 1) Preparation of immunosuppressive factor from tumor bearing mice serum.
ICR mice were intraperitonealy inoculated with 0.2 ml of S-180 suspension (5x10^6 cells/ml). S-180 bearing mice were bled from heart under light ether anesthesia with sterile synringe between 7 and 9 days after transplantation and serum was collected.
Immunosuppressive factor was partially purified from the S-180 tumor bearing mice serum according to the method described by SE-KYUNG OH and F.L.MOOLTEN (J. Immunol., 127, 2300-2307, 1981). Briefly, the serum (50 ml) was delipidated with 1/10 vol. of 4% phosphotungstic acid and 1/40 vol of 2M magnesium chloride and centrifuged at 6000 x G for 10 min. Excess phosphotungstic acid and magnesium ion were removed by dialysis against phosphate- buffered saline (PBS: 0.15 M sodium chloride and 0.01 M phosphate buffer, pH 7.4). Then, partially delipidated serum was precipitated with ammonium sulfate at 50% saturation. The supernatant was removed by centrifugation at 20000 x G for 30 min. The precipitates were redissolved in a small volume of water and dialysed against PBS overnight at 4°C. The dialysed solution was chromatographed on Sephadex G-200 column in PBS. Each eluate (15 ml) was assayed for suppressive activity.
Immunosuppressive activity was measured by assay for inhibition of the mitogen-induced mouse spleen cell proliferation.
3) Suppression of mitogen-induced mouse spleen cell proliferation and its restoration by swainsonine in vitro.
Mitogenic activities for mouse spleen cells in vitro : • a) Mice. Female BALB/C strain (8 weeks of age) was used. • b) Tissue culture medium : The tissue culture medium employed was a complete medium designated Roswell Park Memorial Institute(RPMI)-1640. All media employed contained 100 units/ml of penicillin G and 100 µg/ml of streptomycin sulfate and 5% fetal calf serum. • c) Spleen cell preparation : Spleens were removed under sterile conditions and washed with Hanks solution and then teased in the tissue culture medium. The cells were suspended in the tissue culture medium to contain 5 x 10^5 cells/ml. • d) Culture conditions : Into each hole of Microtiteration plate (Falcon No. 3040) were poured 0.1 ml of the above cells suspension and 0.1 ml of the prescribed concentrate of the compound and/or immunosuppressive factor described above. […] The culture was incubated in triplicate at 37°C in a humidified atmosphere (95% air, 5% C02) for 48 hours. • e) Assay for mitogen induced mouse spleen cells proliferation. The mitogen induced mouse spleen cells proliferation was assayed for tritiated thymidine (^3H-thymidine) incorporation. In all tests, 20 pl of 10 micro curie (uCi)/ml of ^3H-thymidine was added to each hole for the 48 hours of culture. After further 24 hours incubation, the culture was terminated.
The resultant cells were filtered with filter paper, Whatman GF83 and washed successively with saline and with 5% trichloroacetic acid. The filter paper was dried and placed in a scintillator(toluene 1 liter containing 0.1 g of p-bis(5-phenyl oxazole)-benzene and 4 g of 2,5-diphenyloxazole), and ^3H-thymidine incorporated into DNA was measured.

[1] = test system: mixed lymphocyte culture (MLC)-stimulated spleen cells; experiment: Mixed lymphocyte culture (MLC), 3H-thymidine uptake; format: cell-based, mice
Experimental: Female C57BL/6 mice, 8 weeks in age, and female BALB/c mice, 8 weeks in age were sacrificed, spleens were aseptically removed and single cell suspensions were prepared as sources of stimulating and responding cells, respectively. Prior to culture, the stimulator cells were treated with 200 µg/ml of mitomycin C for 45 minutes at 37°C, followed by three washes with PBS.
They were established at a final concentration of 0.2 x 10^6 cells/0.2 ml of reaction mixture and cultured in microtiteration plate (Falcon, No.3040) using RPMI medium supplemented with 10% fetal bovine serum and 5 x 10^-5M 2- mercaptoethanol. The culture was continued for 120 hours and pulse-labeled with ^3H-thymidine for 24 hours before the termination of incubation. The cells were collected and radioactivity was counted.

[2] = swainsonine alone added to mouse spleen cell culture

Structure (SMILES): O[C@H]1[C@H]2[C@H](O)CCCN2C[C@H]1O [Swainsonine]
- Con A induced stimulation of ^3H-thymidine incorporation into mouse spleen cell, increase relative to Con A only (mouse spleen cells; Con A and swainsonine added simultaneously): 10 times
- ^3H-thymidine uptake (cpm) (mouse spleen cells; Concanavalin A 0.3 µg/well + swainsonine 0.0002 µg/well): 67,017 cpm
- ^3H-thymidine uptake (cpm) (mouse spleen cells; Concanavalin A 0.3 µg/well + swainsonine 0.002 µg/well): 105,850 cpm
- ^3H-thymidine uptake (cpm) (mouse spleen cells; Concanavalin A 0.3 µg/well + swainsonine 0.02 µg/well): 108,748 cpm
- ^3H-thymidine uptake (cpm) (mouse spleen cells; Concanavalin A 0.3 µg/well + swainsonine 0.2 µg/well): 118,071 cpm
- ^3H-thymidine uptake (cpm) (mouse spleen cells; Concanavalin A 0.3 µg/well + swainsonine 2 µg/well): 100,480 cpm
- ^3H-thymidine uptake (cpm) (mouse spleen cells; Concanavalin A 0.3 µg/well + swainsonine 20 µg/well): 68,778 cpm
- ^3H-thymidine uptake (cpm) (mouse spleen cells; Concanavalin A 1 µg/well + Immunosuppressive factor 6 µl/well + swainsonine 0.002 µg/well): 69,313 cpm
- ^3H-thymidine uptake (cpm) (mouse spleen cells; Concanavalin A 1 µg/well + Immunosuppressive factor 6 µl/well + swainsonine 0.02 µg/well): 66,858 cpm
- ^3H-thymidine uptake (cpm) (mouse spleen cells; Concanavalin A 1 µg/well + Immunosuppressive factor 6 µl/well + swainsonine 0.2 µg/well): 70,890 cpm
- ^3H-thymidine uptake (cpm) (mouse spleen cells; Concanavalin A 1 µg/well + Immunosuppressive factor 6 µl/well + swainsonine 2 µg/well): 53,500 cpm
- ^3H-thymidine uptake (cpm) (mouse spleen cells; Concanavalin A 1 µg/well + Immunosuppressive factor 6 µl/well + swainsonine 20 µg/well): 37,746 cpm
- ^3H-thymidine uptake (cpm) (mouse spleen cells; Swainsonine alone, 0.0002 µg/well): 1,311 cpm
- ^3H-thymidine uptake (cpm) (mouse spleen cells; Swainsonine alone, 0.002 µg/well): 1,598 cpm
- ^3H-thymidine uptake (cpm) (mouse spleen cells; Swainsonine alone, 0.02 µg/well): 1,712 cpm
- ^3H-thymidine uptake (cpm) (mouse spleen cells; Swainsonine alone, 0.2 µg/well): 1,734 cpm
- ^3H-thymidine uptake (cpm) (mouse spleen cells; Swainsonine alone, 2 µg/well): 1,726 cpm
- ^3H-thymidine uptake (cpm) (mouse spleen cells; Swainsonine alone, 20 µg/well): 1,260 cpm
- suppression of mitogenic response by immunosuppressive factor (mouse spleen cells; swainsonine added to culture containing immunosuppressive factor): prevented the suppression
- mitogenic activity of mouse spleen cell (mouse spleen cells; [2]): did not affected
- spleen cell viability (mouse spleen cells; [2]): did not affected
- ^3H-thymidine uptake (cpm) ([1]; MLC with immunosuppressive factor (3 µl) + swainsonine 0.00002 µg/well): 10,449 cpm
- ^3H-thymidine uptake (cpm) ([1]; MLC with immunosuppressive factor (3 µl) + swainsonine 0.0002 µg/well): 13,015 cpm
- ^3H-thymidine uptake (cpm) ([1]; MLC with immunosuppressive factor (3 µl) + swainsonine 0.002 µg/well): 24,951 cpm
- ^3H-thymidine uptake (cpm) ([1]; MLC with immunosuppressive factor (3 µl) + swainsonine 0.02 µg/well): 31,595 cpm
- ^3H-thymidine uptake (cpm) ([1]; MLC with immunosuppressive factor (3 µl) + swainsonine 0.2 µg/well): 27,942 cpm
- ^3H-thymidine uptake (cpm) ([1]; MLC with immunosuppressive factor (3 µl) + swainsonine 2 µg/well): 23,928 cpm
- ^3H-thymidine uptake (cpm) ([1]; MLC with immunosuppressive factor (5 µl) + swainsonine 0.00002 µg/well): 3,737 cpm
- ^3H-thymidine uptake (cpm) ([1]; MLC with immunosuppressive factor (5 µl) + swainsonine 0.0002 µg/well): 6,377 cpm
- ^3H-thymidine uptake (cpm) ([1]; MLC with immunosuppressive factor (5 µl) + swainsonine 0.002 µg/well): 10,918 cpm
- ^3H-thymidine uptake (cpm) ([1]; MLC with immunosuppressive factor (5 µl) + swainsonine 0.02 µg/well): 7,679 cpm
- ^3H-thymidine uptake (cpm) ([1]; MLC with immunosuppressive factor (5 µl) + swainsonine 0.2 µg/well): 7,928 cpm
- ^3H-thymidine uptake (cpm) ([1]; MLC with immunosuppressive factor (5 µl) + swainsonine 2 µg/well): 6,709 cpm
- ^3H-thymidine uptake (cpm) ([1]; MLC with swainsonine 0.00002 µg/well, no immunosuppressive factor): 20,653 cpm
- ^3H-thymidine uptake (cpm) ([1]; MLC with swainsonine 0.0002 µg/well, no immunosuppressive factor): 21,823 cpm
- ^3H-thymidine uptake (cpm) ([1]; MLC with swainsonine 0.002 µg/well, no immunosuppressive factor): 29,688 cpm
- ^3H-thymidine uptake (cpm) ([1]; MLC with swainsonine 0.02 µg/well, no immunosuppressive factor): 33,686 cpm
- ^3H-thymidine uptake (cpm) ([1]; MLC with swainsonine 0.2 µg/well, no immunosuppressive factor): 38,077 cpm
- ^3H-thymidine uptake (cpm) ([1]; MLC with swainsonine 2 µg/well, no immunosuppressive factor): 33,104 cpm
- inhibitory activity of immunosuppressive factor in MLC ([1]; immunosuppressive factor incubated with swainsonine): the inhibitory activity was removed
- MLC-stimulated spleen cells ^3H-thymidine uptake ([1]; swainsonine added to MLC): enhanced remarkably
